{
  "source": "patent US9499519B2",
  "about": "“Fused pyrimidine compounds and use thereof” (Medivation Technologies, Inc., priority 2012, dated 2016)",
  "type_in_all_cases": "biochemical",
  "key": {"IR": {"target": "T1, IR (Homo sapiens, UniProt P06213)", "T1 construct": "purchased Millipore 14-803", "T1 sequence (P06213 28-1382)": "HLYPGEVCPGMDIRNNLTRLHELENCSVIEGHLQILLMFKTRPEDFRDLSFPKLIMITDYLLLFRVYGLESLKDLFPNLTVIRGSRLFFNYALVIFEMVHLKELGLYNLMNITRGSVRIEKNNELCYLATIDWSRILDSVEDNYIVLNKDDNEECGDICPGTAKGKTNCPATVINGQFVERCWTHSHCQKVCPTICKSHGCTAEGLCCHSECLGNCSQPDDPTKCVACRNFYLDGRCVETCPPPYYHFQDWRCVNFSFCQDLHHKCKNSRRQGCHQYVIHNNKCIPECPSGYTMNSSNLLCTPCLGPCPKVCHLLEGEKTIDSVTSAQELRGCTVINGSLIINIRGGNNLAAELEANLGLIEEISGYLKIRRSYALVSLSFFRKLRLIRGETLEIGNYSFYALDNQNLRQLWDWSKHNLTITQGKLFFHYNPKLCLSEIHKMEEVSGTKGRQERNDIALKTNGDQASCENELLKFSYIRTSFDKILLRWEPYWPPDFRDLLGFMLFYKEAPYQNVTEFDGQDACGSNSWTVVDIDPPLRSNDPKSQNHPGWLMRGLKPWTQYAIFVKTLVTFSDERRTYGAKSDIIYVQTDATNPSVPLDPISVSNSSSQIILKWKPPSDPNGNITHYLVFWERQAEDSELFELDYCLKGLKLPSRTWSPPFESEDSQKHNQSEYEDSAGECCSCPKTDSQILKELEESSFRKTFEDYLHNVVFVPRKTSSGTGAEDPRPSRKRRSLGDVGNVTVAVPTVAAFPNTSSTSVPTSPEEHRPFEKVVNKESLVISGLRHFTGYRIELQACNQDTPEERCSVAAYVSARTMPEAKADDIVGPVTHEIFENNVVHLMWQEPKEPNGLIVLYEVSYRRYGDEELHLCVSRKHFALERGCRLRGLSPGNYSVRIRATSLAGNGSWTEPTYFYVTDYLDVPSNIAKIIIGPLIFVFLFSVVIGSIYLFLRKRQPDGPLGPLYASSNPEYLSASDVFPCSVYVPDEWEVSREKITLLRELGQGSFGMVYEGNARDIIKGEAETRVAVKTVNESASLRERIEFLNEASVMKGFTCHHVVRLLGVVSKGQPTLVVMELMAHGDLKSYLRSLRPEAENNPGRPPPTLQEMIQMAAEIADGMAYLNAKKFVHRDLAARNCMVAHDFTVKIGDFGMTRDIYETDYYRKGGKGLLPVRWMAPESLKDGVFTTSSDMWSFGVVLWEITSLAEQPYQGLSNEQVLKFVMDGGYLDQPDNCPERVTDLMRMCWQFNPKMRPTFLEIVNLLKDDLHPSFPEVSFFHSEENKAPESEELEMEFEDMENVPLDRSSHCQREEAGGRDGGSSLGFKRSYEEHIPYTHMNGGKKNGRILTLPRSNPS", "test": "In vitro IR enzymatic assay (ADP-Glo kinase assay)", "details": "activated IR", "experimental": "IC50 values of the compounds of the invention against IGF-1R and IR were measured in vitro using an ADP-Glo kinase assay Kit (Promega). […] Kinase reactions in both assays were conducted at 30° C. for 20 min with increasing concentrations of compounds of the invention.\nAdditional compounds of the invention were screened against activated IR."}, "Trk B": {"target": "Trk B (Homo sapiens, UniProt Q16620)", "sequence (Q16620 32-822)": "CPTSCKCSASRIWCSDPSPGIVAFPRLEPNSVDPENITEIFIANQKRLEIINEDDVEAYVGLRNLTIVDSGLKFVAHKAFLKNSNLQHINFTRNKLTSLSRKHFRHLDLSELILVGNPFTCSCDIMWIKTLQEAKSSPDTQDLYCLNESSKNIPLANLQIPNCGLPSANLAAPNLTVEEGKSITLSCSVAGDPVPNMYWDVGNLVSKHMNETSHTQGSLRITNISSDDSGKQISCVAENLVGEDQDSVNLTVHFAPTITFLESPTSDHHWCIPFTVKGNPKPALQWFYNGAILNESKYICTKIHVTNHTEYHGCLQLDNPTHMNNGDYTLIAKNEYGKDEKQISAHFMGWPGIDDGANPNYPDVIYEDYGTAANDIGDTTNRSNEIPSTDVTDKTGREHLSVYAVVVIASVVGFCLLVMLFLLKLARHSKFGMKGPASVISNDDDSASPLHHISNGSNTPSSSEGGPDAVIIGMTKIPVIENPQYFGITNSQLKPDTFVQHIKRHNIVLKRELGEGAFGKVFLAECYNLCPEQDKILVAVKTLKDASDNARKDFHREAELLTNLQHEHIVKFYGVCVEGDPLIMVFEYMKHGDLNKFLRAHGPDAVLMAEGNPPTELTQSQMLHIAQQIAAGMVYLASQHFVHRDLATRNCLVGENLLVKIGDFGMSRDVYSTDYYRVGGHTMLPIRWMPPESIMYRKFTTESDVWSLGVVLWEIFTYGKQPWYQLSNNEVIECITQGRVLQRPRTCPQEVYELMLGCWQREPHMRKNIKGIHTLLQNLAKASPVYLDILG", "test": "HotSpot kinase assay: Trk B", "details": "100 nM compound, read-out: % Enzyme Inhibition @ 100 nM Trk B", "experimental": "(§1) Each compound was tested at a concentration of 0.1 μM in single duplicate mode against the 3 kinases. Compounds were prepared as 10 mM stock solutions in DMSO prior to use in the assay. […] IC50 values and curve fits were obtained using Prism (GraphPad Software).\n(§2) The screening was performed using the “HotSpot” assay platform. The assay measures the conversion of a peptide substrate to ^33P-labelled phosphorylated product. Briefly, specific kinase/substrate pairs along with required cofactors were prepared in reaction buffer. Specifically, the substrate was prepared in reaction buffer (20 mM Hepes, pH 7.5; 10 mM MgCl2; 1 mM EGTA; 0.02% Brij35; 0.02 mg/mL BSA; 0.1 mM Na3VO4; 2 mM DTT; 1% DMSO), followed by delivery of any required cofactor to the resulting substrate solution. The corresponding kinase was delivered into the substrate solution and the reaction mixture was mixed gently. Compound was delivered into the reaction mixture, followed 15-20 minutes later by addition of a mixture of ATP (Sigma, St. Louis Mo.) and ^33P ATP (specific activity 0.01 μCi/μL final; Perkin Elmer, Waltham, Mass.) to a final concentration of 10 μM-30 μM to initiate the reaction. […] The percent of enzyme inhibition was calculated based on the percent of remaining kinase activity."}, "c-Mer": {"target": "T2, c-Mer (Homo sapiens, UniProt Q12866)", "T2 sequence (Q12866 21-999)": "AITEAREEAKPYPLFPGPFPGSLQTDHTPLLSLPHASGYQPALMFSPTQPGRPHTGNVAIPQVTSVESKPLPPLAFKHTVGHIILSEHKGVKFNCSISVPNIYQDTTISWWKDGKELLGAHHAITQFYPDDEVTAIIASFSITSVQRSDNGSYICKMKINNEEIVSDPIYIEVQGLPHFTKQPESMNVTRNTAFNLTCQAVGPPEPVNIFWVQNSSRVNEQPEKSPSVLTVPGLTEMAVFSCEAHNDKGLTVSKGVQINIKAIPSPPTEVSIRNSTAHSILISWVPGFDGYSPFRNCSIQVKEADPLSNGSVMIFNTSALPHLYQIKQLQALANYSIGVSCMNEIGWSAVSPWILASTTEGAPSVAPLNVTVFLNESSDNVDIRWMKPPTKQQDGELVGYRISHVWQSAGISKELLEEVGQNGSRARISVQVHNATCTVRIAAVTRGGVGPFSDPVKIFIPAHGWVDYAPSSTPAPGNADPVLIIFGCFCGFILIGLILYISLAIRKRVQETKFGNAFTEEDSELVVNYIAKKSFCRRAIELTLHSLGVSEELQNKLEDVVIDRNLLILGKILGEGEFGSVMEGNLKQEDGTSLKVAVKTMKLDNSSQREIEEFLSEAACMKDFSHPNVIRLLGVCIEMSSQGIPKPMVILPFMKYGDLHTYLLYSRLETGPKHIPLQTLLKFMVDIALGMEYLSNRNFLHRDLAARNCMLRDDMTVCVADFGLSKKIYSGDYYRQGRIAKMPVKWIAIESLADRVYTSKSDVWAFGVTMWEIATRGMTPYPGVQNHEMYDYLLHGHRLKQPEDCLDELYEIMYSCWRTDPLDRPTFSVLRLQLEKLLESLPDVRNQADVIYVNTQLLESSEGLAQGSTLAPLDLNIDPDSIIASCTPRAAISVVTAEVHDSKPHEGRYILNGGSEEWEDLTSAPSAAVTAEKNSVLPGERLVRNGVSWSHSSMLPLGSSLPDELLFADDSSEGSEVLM", "test": "HotSpot kinase assay: c-Mer", "details": "100 nM compound, read-out: % Enzyme Inhibition @ 100 nM c-MER", "experimental": "as §1, with “Kinase assays were performed using additional compounds against a panel of 4 kinases: AXL; c-Met; c-Mer; and Trk C. Each” for “Each”, “[…]” for “μM”, “4” for “3”\nas §2"}},
  "note": "pIC50: −log10 of the molar value. “And” between values parts separate entries of the source, which are not always exact repeats. Identical values can stand only once.",
  "data": [
    {"smiles": "CC(C)c1cc(Nc2nc(N3CCCC3C(=O)N(C)C)nc3c2CCC3)n[nH]1", "note": "(single isomer, unassigned) [Compound 20b, 1-(4-(5-isopropyl-1H-pyrazol-3-ylamino)-6,7-dihydro-5H-cyclopenta[d]pyrimidin-2-yl)-N,N-dimethylpyrrolidine-2-carboxamide]", "values": [
      {"measurement": "pIC50", "setting": "IR", "result": "5.74 and 5.77"},
      {"measurement": "inhibition at 0.1 µM", "setting": "Trk B", "result": "< 39", "unit": "%"},
      {"measurement": "inhibition at 0.1 µM", "setting": "c-Mer", "result": "< 39", "unit": "%"}
    ]}
  ]
}
